The record followed here is patent US20240207308A1, “METHOD FOR CULTURING DENDRITIC CELLS” (NANOFAENTECH CO., LTD., priority 2021, published 2024).

Common to all, as to type: cell-based, mouse
For assay [1], the system named is bone marrow-derived dendritic cells. In words: CD86 expression of LPS-stimulated bone marrow-derived dendritic cells, flow cytometry. The following applies: 24 hours, LPS 1 μg/mL. As to the method:
Compared to spleen dendritic cells, when bone marrow-derived DCs (BMDCs) were stimulated with LPS, effects of the peptide combination and the addition of fibronectin were measured.
Mouse bone marrow-derived dendritic cells were obtained by differentiation from mouse bone marrow precursor cells. The femur and tibia of female C57BL/6 mouse were removed, and bone marrow was isolated using 10 mL of EDTA:BSS (Balanced Salt Solution) buffer containing 2% FBS. Red blood cells were removed with erythrocyte lysis buffer (Sigma-Aldrich), washed with EDTA:BSS buffer, followed by filtering cells using a 70 μm cell strainer (Falcon). Cells at 3×10^6/mL were dispensed in a 6-well plate, and interleukin-4 (20 ng/ml) (JW Creagene, Korea) and GM-CSF (20 ng/ml) (JW Creagene) were added and cultured for 7 days to induce differentiation. Differentiated dendritic cells were reacted with microbeads bound with CD11c antibody (eBioscience), was separated using CD11c Microbeads Ultrapure (MACS, Milteni Biotec), and then cultured.
In FIG. 17, while culturing 2×10^5/mL of bone marrow-derived dendritic cells for 24 hours, the peptides of P1, P2 and P3 were each added at a concentration of 200 μg/mL or fibronectin was added at a concentration of 200 μg/mL. […]

Assay [2] relates to CD8+ T cells from OT-I transgenic mice. In words: Proliferation of CFSE-stained OT-I CD8+ T cells co-cultured with OVA peptide-treated spleen dendritic cells. The following applies: LPS-stimulated dendritic cells, co-culture 1:20, 4 days. As to the method:
The spleen dendritic cells (2×10^6/mL) were self-activated in a 96-well plate for 24 hours, or self-activation was inhibited by adding a linker peptide, and then either not treated with LPS or stimulated with LPS for 24 hours. Dendritic cells were cultured with 10 μM ovalbumin (OVA) peptide SIINFEKL (InvivoGen, San Diego, California, USA) for 1 hour. CD8^+ T cells were isolated from OT-I transgenic mice using a CD8 T cell isolation kit (Miltenyi Biotec) and fluorescence-stained with 10 μM carboxyfluorescein succinimidyl ester (CFSE) for 10 minutes. After co-culture of CD8^+ T cells (1×10^5) and DCs (5×10^3) treated with OVA peptide at a ratio of 1:20 for 4 days, a proliferation level of T cells was measured in percentage of cells that are negative for CFSE fluorescence-staining.

The subject of another assay is spleen dendritic cells. In words: Fluorescence staining of CD86 in spleen dendritic cells, confocal microscope. The settings on record: 24 hours. As to the method:
In FIG. 11, culturing spleen dendritic cells (2×10^5/mL) and the prepared peptides were added at a concentration of 200 μg/mL, respectively, and after 6 hours, the expression level of CD86 using a PE-conjugated anti-CD86 antibody (eBioscience) was measured through a confocal microscope after fluorescence staining. After culturing spleen primary dendritic cells for a certain period of time, intracellular CD86, F-actin and nuclear staining was implemented. Expression of actin was stained with FITC-conjugated phalloidin (eBioscience), and nuclear staining was conducted with Hoechst 33342 (Sigma-Aldrich). For this purpose, cells cultured in a 48-well plate were placed in a 4% paraformaldehyde fixing solution, and then fixed at room temperature for 20 minutes.
Then, after washing twice with phosphate buffered saline solution, it was permeabilized with 0.1% Triton X-100 (Sigma-Aldrich) solution at room temperature for 5 minutes and washed twice with phosphate buffered saline solution. In order to remove non-specific staining, after reacting with 0.2% bovine serum albumin (Sigma-Aldrich) solution at room temperature for 20 minutes, it was washed twice with phosphate buffered saline solution. After that, the anti-CD86 antibody and phalloidine were diluted in 0.2% bovine serum albumin solution at a ratio of 1:40 and reacted for 40 minutes, washed 3 times with Tris buffer, placed on a slide glass, followed by counter-staining with Hoechst 33342 solution for nuclear staining of cells. After sealing with a cover glass, the cells were observed using a confocal laser microscope (K1 nanoscope).
In FIG. 26, spleen dendritic cells (2×10^5/mL) were dispensed in a 48-well plate, and linker peptides were each added at a concentration of 400 μg/mL, followed by culturing for 24 hours. Activation of spleen dendritic cells was induced by adding 1 μg/mL of LPS to the culture medium. The cultured cells were placed in a 4% paraformaldehyde fixing solution and fixed at room temperature for 20 minutes. After fluorescence staining using PE-conjugated anti-CD86 antibody (eBioscience), it was measured with a confocal microscope (K1 Nanoscope, Korea). Intracellular actin expression was stained with FITC-conjugated phalloidin (eBioscience), and nuclear staining was conducted with Hoechst 33342 (Sigma-Aldrich). CD86 antibody and phalloidin were diluted 1:40 in 0.2% bovine serum albumin solution and used.

Assay [3] has as its system spleen T cells from Balb/c mice. In words: Mixed lymphocyte reaction: proliferation of CFSE-stained allogeneic T cells co-cultured with spleen dendritic cells. The following applies: dendritic cells cultured with the substance and activated with LPS or poly (I:C), co-culture 1:20, 4 days. As for the experimental part:
Since the main role of activated dendritic cells is to induce antigen-specific T-cell activation and proliferation according to the stimulatory properties, it was investigated whether self-activated dendrite cells after culturing and dendritic cells activated with LPS after culturing with addition of peptides can induce T cell proliferation by mixed lymphocyte reaction (MLR) test. The spleen dendritic cells isolated from C57B/L6 mice were self-activated for 24 hours, otherwise, when cultured with addition of peptides or fibronectin, the cells were treated with LPS and activated. Spleen T cells from Balb/c mice were isolated using a CD4^+/CD8^+ T cell isolation kit (Miltenyi Biotec, Bergisch-Gladbach, Germany) and MACS column (Miltenyi Biotec), followed by 10 μM CFSE staining (Molecular Probes; Thermo Fisher Scientific Inc., USA). The activated dendritic cells and CFSE-stained T cells were co-cultured at a ratio of 1:20 for 4 days, and the T cell proliferation level was measured as a percentage of cells with decreased CFSE. […] In FIG. 22, the amount of cytokines secreted after co-culture of spleen dendritic cells and T cells for 4 days was measured by ELISA method. […]

A value given as a limit tells only on which side of the number the result lay.

With fibronectin, the “CD86 expression by LPS” value in assay [1] (BMDC 2×10^5/mL, 200 μg/mL) is on record as “did not occur”. Moreover, the “concentration from which the increase in CD86 expression by LPS was inhibited” value in assay [1] (BMDC) is at least 50 µg/mL. Moreover, the “T cell proliferation (cells negative for CFSE)” value in assay [2] is given as “very weak ability to induce T cell proliferation”. Besides, the CD86-expressing cells entry in the assay on spleen dendritic cells (with 1 μg/mL LPS) is listed as “almost not measured”; with spleen dendritic cells (without LPS, linker peptides 400 μg/mL) it was “almost not observed”. The “T cell proliferation (cells with decreased CFSE)” value in assay [3] was “not inducing T cell proliferation”.
